Measurements as given in paper PMC6095690, “Coalescing beneficial host and deleterious antiparasitic actions as an antischistosomal strategy” (eLife, 2018).
Where two headings read alike, the source gives them in different places.

Experiments:
[1] = tested on: adult S. mansoni parasites; experiment: adult worm movement assay ex vivo; set-up: species or system Schistosoma mansoni; conditions: for EC50 / IC50: Schistosoma mansoni, ± 95% confidence interval; for EC50: read-out: EC50 for stimulation of adult schistosome movement; for IC50: read-out: IC50 for inhibition of 5-HT evoked movement, 5-HT 200 µM
[2] = tested on: adult S. mansoni male and female pairs; experiment: egg laying assay of worm pairs cultured ex vivo; conditions: 100 µM, five days
[3] = tested on: immature S. mansoni; experiment: movement of immature worms harvested 4 weeks post infection, ex vivo; set-up: species or system Schistosoma mansoni; conditions: male worms 4 weeks post infection
Source text: Figure 6. […] Figure 6—figure supplement 1. […] Scale = 50 µm. [drawing 7]

[4] = molecular target: Sj.5HTR (Schistosoma japonicum, UniProt A0A346LTY2); experiment: cell-based
Sj.5HTR, sequence (A0A346LTY2 entry or part of it): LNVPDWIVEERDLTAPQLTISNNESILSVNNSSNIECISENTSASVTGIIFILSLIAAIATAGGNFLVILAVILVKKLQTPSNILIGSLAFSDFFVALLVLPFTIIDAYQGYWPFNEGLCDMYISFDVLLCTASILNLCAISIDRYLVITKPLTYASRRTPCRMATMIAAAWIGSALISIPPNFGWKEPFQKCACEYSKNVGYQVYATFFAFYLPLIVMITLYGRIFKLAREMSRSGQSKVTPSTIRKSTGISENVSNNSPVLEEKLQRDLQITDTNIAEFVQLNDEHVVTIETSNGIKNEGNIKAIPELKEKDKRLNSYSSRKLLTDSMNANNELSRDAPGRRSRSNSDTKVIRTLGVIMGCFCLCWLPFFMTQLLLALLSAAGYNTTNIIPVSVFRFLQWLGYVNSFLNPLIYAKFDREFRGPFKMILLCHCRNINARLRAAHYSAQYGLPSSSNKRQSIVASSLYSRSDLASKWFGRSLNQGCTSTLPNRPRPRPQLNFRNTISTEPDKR

[5] = molecular target: T1, Sm.5HTRL (Schistosoma mansoni, UniProt A0A173FEI8); experiment: cell-based; conditions: for fold induction at 10 µM: HEK293, read-out: Sm.5HTRL agonism (fold change luminescence)
T1 sequence (A0A173FEI8 1-547): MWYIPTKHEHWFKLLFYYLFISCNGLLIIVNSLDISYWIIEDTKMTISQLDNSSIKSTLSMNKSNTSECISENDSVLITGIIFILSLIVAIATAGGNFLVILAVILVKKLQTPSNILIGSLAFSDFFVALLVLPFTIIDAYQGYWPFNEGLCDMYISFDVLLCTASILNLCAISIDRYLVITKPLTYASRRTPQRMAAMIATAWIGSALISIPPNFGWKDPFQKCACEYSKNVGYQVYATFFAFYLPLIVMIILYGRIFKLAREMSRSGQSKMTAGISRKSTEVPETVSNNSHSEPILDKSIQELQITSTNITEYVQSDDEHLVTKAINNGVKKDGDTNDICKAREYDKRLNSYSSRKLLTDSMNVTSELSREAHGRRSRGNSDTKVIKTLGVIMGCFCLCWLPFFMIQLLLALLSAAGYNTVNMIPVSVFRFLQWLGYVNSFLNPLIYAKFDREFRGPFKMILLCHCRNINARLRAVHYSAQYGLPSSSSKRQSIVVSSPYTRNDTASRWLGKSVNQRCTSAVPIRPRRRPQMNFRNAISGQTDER

[6] = molecular target: Sh.5HTR (Schistosoma haematobium, UniProt A0A922S615); type: cell-based; conditions: receptor transiently transfected into stable HEK293 cAMP reporter line; read-out: EC50 of cAMP luminescence response
[7] = tested on: S. mansoni (mature infection in Swiss Webster mice); experiment: hepatic shift assay in infected mice; conditions: intraperitoneal, sacrificed three hours later; dose not given
[8] = molecular target: T1, Sm.5HTRL
[9] = tested on: parental HEK293 cell line expressing the GloSensor 22F cAMP sensor and lacking Sm.5HTRL; experiment: counter-screen of agonist hits: basal cAMP luminescence in parental reporter line; type: cell-based
[10] = agonist hit counter screen, cells lacking Sm.5HTRL
[11] = primary screen, compound 10 µM then 5-HT 1 µM, 384 well, single replicate

With `NCCc1c[nH]c2ccc(O)cc12` [5-HT, serotonin] the EC50 ([1]; ex vivo) was 51.6 ± 3 µM, the “effect on adult worm movement” value ([1]; ex vivo, 5-HT at 200 µM) was “increased worm movement” and the “reduction of egg laying ex vivo” value [2] was 82.4 ± 2.2 % reduction. For the same compound, the “effect on movement of juvenile worms” value [3] was “stimulated movement of juvenile worms”, the EC50 [4] was 3 ± 0.3 nM and the EC50 [5] was 76 ± 1 nM. It also gave a fold induction at 1 µM ([5]; HEK293, read-out: elevation in luminescence values (fold increase)) of 70 to 110 and an EC50 [6] of 3.6 ± 0.3 nM.
With `CCN(CC)C(=O)[C@@H]1C=C2c3cccc4[nH]c(Br)c(c34)C[C@H]2N(C)C1` [BOL-148, 2-Bromo-LSD] the IC50 ([1]; ex vivo) was 28.8 ± 23.1 nM, the “potency relative to bromocriptine” value ([1]; inhibition of 5-HT evoked movement) was ~ 10 fold and the “percentage of worms in the liver” value [7] was 5.2 ± 2.3%. The IC50 [5] was 100 ± 20 nM and the “type of activity at schistosome 5-HTRs” value [8] was “antagonists”.
For `CCN(CC)C(=O)[C@@H]1C=C2c3cccc4[nH]cc(c34)C[C@H]2N(C)C1` [LSD, reference compound], the EC50 ([1]; ex vivo) was 1.4 ± 0.5 µM and the “type of activity at schistosome 5-HTRs” value [8] was “partial agonist”.
With `COc1cc(C(=O)NCCOc2ccccc2C)cc(OC)c1OC` [ST005872] the “(-)Sm.5HTRL fold change” value [9, 10] was 0.7305 fold change and the “(+) Sm.5HTRL fold change” value ([8]; agonist hit validation) was 10.4008 fold change.
With `Nc1ncnc2c1ncn2[C@@H]1O[C@H](CO)[C@@H](O)[C@H]1O` [ST009496] the “(-)Sm.5HTRL fold change” value [9, 10] was 3.9 fold change and the “(+) Sm.5HTRL fold change” value ([8]; agonist hit validation) was 24.237 fold change.
With `CNCCc1c[nH]c2ccc(O)cc12.O=C(O)C(=O)O` [ST055634] the “(-)Sm.5HTRL fold change” value [9, 10] was 1.3 fold change and the “(+) Sm.5HTRL fold change” value ([8]; hek293 cells) was 165.214 fold change.
`CN1C[C@H](C(=O)N[C@]2(C)O[C@@]3(O)[C@@H]4CCCN4C(=O)[C@H](Cc4ccccc4)N3C2=O)C[C@@H]2c3cccc4[nH]cc(c34)C[C@H]21.CS(=O)(=O)O` [ST056346] was tested, and the “(-)Sm.5HTRL fold change” value [9, 10] was 1.4 fold change and the “(+) Sm.5HTRL fold change” value [8] was 94.3413 fold change.
`Br.Oc1ccc(CC2NCCc3cc(O)c(O)cc32)cc1O` (stereo not drawn) [ST056944] was tested, and the “(-)Sm.5HTRL fold change” value [9] was 56.3 fold change and the “(+) Sm.5HTRL fold change” value ([8]; hek293 cells) was 28.3016 fold change.
`Nc1ncnc2c1ncn2[C@@H]1O[C@H](COP(=O)(O)OP(=O)(O)O)[C@@H](O)[C@H]1O` [ST057097] was tested, and the “(-)Sm.5HTRL fold change” value [9, 10] was 1.0 fold change and the “(+) Sm.5HTRL fold change” value ([8]; agonist hit validation) was 11.9433 fold change.
`C[C@@H](CO)NC(=O)[C@@H]1C=C2c3cccc4[nH]cc(c34)C[C@H]2N(C)C1` [ST057158] was tested, and the “(-)Sm.5HTRL fold change” value [9, 10] was 1.1 fold change and the “(+) Sm.5HTRL fold change” value [8] was 15.5169 fold change.
For `CC1=CC(=O)c2c(O)cccc2C1=O` [ST069355], the “(+) Sm.5HTR 5-HT response (% of DMSO)” value [8] was 0.03935 % of DMSO.
In the case of `CNC[C@H](O)c1ccc(O)c(O)c1` [ST069368], the “(-)Sm.5HTRL fold change” value [9, 10] is reported as 94.1 fold change and the “(+) Sm.5HTRL fold change” value ([8]; agonist hit validation) is reported as 60.6229 fold change.
For `NCCc1c[nH]c2cccc(OC(=O)c3ccc(C(=O)O)cc3)c12` [ST070282], the “(-)Sm.5HTRL fold change” value [9, 10] was 1.366 fold change and the “(+) Sm.5HTRL fold change” value ([8]; hek293 cells) was 12.6864 fold change.
`Cc1ccc2[nH]c(CCN)cc2c1.Cl` [ST070930] was tested, and the “(-)Sm.5HTRL fold change” value [9, 10] was 1.1 fold change and the “(+) Sm.5HTRL fold change” value ([8]; agonist hit validation) was 17.0489 fold change.
`CN1CC(C(=O)NC2(C)OC3(O)C4CCCN4C(=O)C(Cc4ccccc4)N3C2=O)C=C2c3cccc4[nH]cc(c34)CC21.O=C(O)C(O)C(O)C(=O)O` (stereo not drawn) [ST072185] was tested, and the “(-)Sm.5HTRL fold change” value [9] was 1.0 fold change and the “(+) Sm.5HTRL fold change” value [8] was 29.8904 fold change.
In the case of `CC(C)NCC(O)c1ccc(O)c(O)c1` (stereo not drawn) [ST077771], the “(-)Sm.5HTRL fold change” value [9, 10] is reported as 15.0437 fold change and the “(+) Sm.5HTRL fold change” value ([8]; agonist hit validation) is reported as 12.8429 fold change.
For `Nc1nc(Cl)nc2c1ncn2C1OC(CO)C(O)C1O` (stereo not drawn) [ST088476], the “(-)Sm.5HTRL fold change” value [9, 10] was 3.8 fold change and the “(+) Sm.5HTRL fold change” value ([8]; agonist hit validation) was 23.2211 fold change.
For `Cl.NCCc1c[nH]c2ccc(Br)cc12` [ST093597], the “(-)Sm.5HTRL fold change” value [9] was 1.1795 fold change and the “(+) Sm.5HTRL fold change” value ([8]; hek293 cells) was 15.2823 fold change.
For `CNCC(O)c1ccc(O)cc1` (stereo not drawn) [ST095769], the “(-)Sm.5HTRL fold change” value [9, 10] was 2.535 fold change and the “(+) Sm.5HTRL fold change” value ([8]; agonist hit validation) was 11.737 fold change.
`C=C[C@@]1(C)CC(=O)[C@@]2(O)[C@](C)(O1)[C@@H](OC(C)=O)[C@@H](O)C1C(C)(C)CC[C@H](O)[C@@]12C` (stereo partly drawn) [ST095786] was tested, and the “(-)Sm.5HTRL fold change” value [9, 10] was 121.8 fold change and the “(+) Sm.5HTRL fold change” value ([8]; agonist hit validation) was 95.4625 fold change.
For `CC(C)C[C@H]1C(=O)N2CCC[C@H]2[C@]2(O)O[C@](NC(=O)[C@@H]3C=C4c5cccc6[nH]c(Br)c(c56)C[C@H]4N(C)C3)(C(C)C)C(=O)N12` [bromocriptine, Bromocriptine], the IC50 ([1]; ex vivo) was 331 ± 271 nM, the “5-HT (200 µM) stimulation of worm movement after preincubation with antagonist” value ([1]; preincubation 1 µM, Figure 4B) was 5-HT stimulation was not observed and the “percentage of worms in the liver” value [7] was 2.0 ± 2.8%. The IC50 [5] was 1600 ± 400 nM and the “type of activity at schistosome 5-HTRs” value [8] was “antagonists”.
In the case of `COc1cc2c(c(OC)c1OC)-c1ccc(OC)c(=O)cc1[C@@H](NC(C)=O)CC2` [compound 757], the “Sm.5HTRL agonism (fold change luminescence)” value [8] is reported as 1.502 fold change luminescence and the “Sm.5HTRL antagonism (% of control 5-HT response)” value [8] is reported as 1.228 % of control 5-HT response.
`C=C[C@]1(C)C=C2CC[C@@H]3[C@](C)(CCC[C@@]3(C)C(=O)O)[C@H]2CC1` [compound 6435] was tested, and the “(-)Sm.5HTRL fold change” value [9, 10] was 0.9901 fold change and the “(+) Sm.5HTRL fold change” value ([8]; agonist hit validation) was 200.129 fold change.
For `Nc1ncnc2c1ncn2C1OC(CO)C(O)C1O` (stereo not drawn) [compound 7652], the “(-)Sm.5HTRL fold change” value [9, 10] was 7.802 fold change and the “(+) Sm.5HTRL fold change” value ([8]; agonist hit validation) was 49.711 fold change.
In the case of `O=c1ccc2nc3ccc(O)cc3oc-2c1` [compound 12097], the fold induction at 10 µM [5] is reported as 0.635 and the “Sm.5HTRL antagonism (% of control 5-HT response)” value [8, 11] is reported as 0.7238 % of control 5-HT response.
With `COc1ccc(C2CC(=O)c3c(O)cc(OC4OC(CO)C(O)C(O)C4OC4OC(C)C(O)C(O)C4O)cc3O2)cc1O` (stereo not drawn) [compound 31048] the fold induction at 10 µM [5] was 1.32 and the “Sm.5HTRL antagonism (% of control 5-HT response)” value [8, 11] was 1.138 % of control 5-HT response.
`CCN1C[C@]2(COC)[C@H](O)C[C@H](OC)[C@]34C1[C@H]([C@H](OC)[C@H]23)[C@]1(OC(C)=O)[C@H]2[C@@H](OC(=O)c3ccccc3)[C@](O)(C[C@H]24)[C@@H](OC)[C@@H]1O` [compound 56464] was tested, and the “Sm.5HTRL agonism (fold change luminescence)” value [8] was 1.997 fold change luminescence and the “Sm.5HTRL antagonism (% of control 5-HT response)” value [8] was 1.042 % of control 5-HT response.
In the case of `CNC[C@@H](O)c1ccc(O)c(O)c1` [compound 62786], the “(-)Sm.5HTRL fold change” value [9, 10] is reported as 88.8519 fold change and the “(+) Sm.5HTRL fold change” value ([8]; agonist hit validation) is reported as 230.23 fold change.
`COC(=O)C1=COC(C)C2CN3CCc4c([nH]c5cc(OC)c(OC)cc45)C3CC12.O=C(O)CC(O)(CC(=O)O)C(=O)O` (stereo not drawn) [compound 72715] was tested, and the “(-)Sm.5HTRL fold change” value [9, 10] was 0.9445 fold change and the “(+) Sm.5HTRL fold change” value ([8]; agonist hit validation) was 54.6116 fold change.
For `COc1cc(C)c2c(c1C=O)Oc1c(c(C)c(O)c3c1C(O)OC3=O)OC2=O` (stereo not drawn) [compound 87511], the fold induction at 10 µM [5] was 0.635 and the “Sm.5HTRL antagonism (% of control 5-HT response)” value [8, 11] was 0.8125 % of control 5-HT response.
In the case of `CN1C[C@H](C(=O)N[C@]2(C)O[C@@]3(O)[C@@H]4CCCN4C(=O)[C@H](Cc4ccccc4)N3C2=O)C[C@@H]2c3cccc4[nH]cc(c34)C[C@H]21` [dihydroergotamine, Dihydroergotamine, reference compound], the “type of activity at schistosome 5-HTRs” value [8] is reported as “full agonists”.
`CCN(CC)C(=O)N[C@H]1C[C@@H]2c3cccc4[nH]cc(c34)C[C@H]2N(C)C1` [terguride, Terguride, reference compound] was tested, and the IC50 [5] was 400 ± 50 nM and the “type of activity at schistosome 5-HTRs” value [8] was “antagonists”.
With `CC(C)C[C@H]1C(=O)N2CCC[C@H]2[C@]2(O)O[C@](NC(=O)[C@@H]3C=C4c5cccc6[nH]cc(c56)C[C@H]4N(C)C3)(C(C)C)C(=O)N12` [α-ergocryptine, reference compound] the “type of activity at schistosome 5-HTRs” value [8] was “inactive”.
